Reference: patent publication US12331026B2 (NiKang Therapeutics, Inc., priority 2022, dated 2025)

Each compound was assayed against T1, CDK2 (Homo sapiens, UniProt P24941) (assay: Phospho-RB measurement in OVCAR3 cells (HTRF phospho-RB S807/811)). Conditions: phosphorylation of RB protein at S807/811, HTRF, 24 h compound treatment, 0.3 to 10,000 nM, read-out: pRb (uM).
T1 construct: endogenous in cells; host or cells: OVCAR3 cells
Type: cell-based
How it was run: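 IC50 values come from four-parameter logistic fits of the DMSO-normalised 665/620 nm TR-FRET ratio for phospho-RB (S807/811). Antibody detection ran 4 h at room temperature.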

Row | IC50 [µM] | Compound
1 | 0.12 | O=S1(=O)C[C@@H]2[C@H](C1)[C@H]2Nc1nccc(-c2sc(N3C4CCC3CN(C3CCC3)C4)nc2-c2cccc(NS(=O)(=O)c3c(F)cccc3C(F)(F)F)c2F)n1 [Example 131, N-(3-(2-(3-cyclobutyl-3,8-diazabicyclo[3.2.1]octan-8-yl)-5-(2-(((1R,5S,6r)-3,3-dioxido-3-thiabicyclo[3.1.0]hexan-6-yl)amino)-pyrimidin-4-yl)thiazol-4-yl)-2-fluorophenyl)-2-fluoro-6-(trifluoromethyl)benzenesulfonamide]
2 | 0.05 | CS(=O)(=O)[C@H]1CC[C@@H](Nc2nccc(-c3sc(C45CC(C4)C5)nc3-c3cccc(NS(=O)(=O)c4c(F)cccc4C(F)(F)F)c3F)n2)CC1 [Example 132, N-(3-(2-(bicyclo[1.1.1]pentan-1-yl)-5-(2-(((1s,4s)-4-(methylsulfonyl)cyclohexyl)amino)pyrimidin-4-yl)thiazol-4-yl)-2-fluorophenyl)-2-fluoro-6-(trifluoromethyl)benzenesulfonamide]
3 | 0.12 | CS(=O)(=O)[C@H]1CC[C@H](Nc2nccc(-c3sc(C4(C(F)(F)F)CC4)nc3-c3cccc(NS(=O)(=O)c4c(Cl)cccc4C(F)(F)F)c3F)n2)CC1 [Example 133, 2-chloro-N-(2-fluoro-3-(5-(2-(((1r,4r)-4-(methylsulfonyl)-cyclohexyl)amino)pyrimidin-4-yl)-2-(1-(trifluoromethyl)-cyclopropyl)thiazol-4-yl)phenyl)-6-(trifluoromethyl)benzene-sulfonamide]
4 | 0.08 | CS(=O)(=O)[C@H]1CC[C@H](Nc2nccc(-c3sc(C45CC(C(F)F)(C4)C5)nc3-c3cccc(NS(=O)(=O)c4c(F)cccc4C(F)(F)F)c3F)n2)CC1 [Example 134, N-(3-(2-(3-(difluoromethyl)bicyclo[1.1.1]pentan-1-yl)-5-(2-(((1r,4r)-4-(methylsulfonyl)cyclohexyl)amino)pyrimidin-4-yl)thiazol-4-yl)-2-fluorophenyl)-2-fluoro-6-(trifluoromethyl)benzenesulfonamide]
5 | 0.07 | CN1CC2CCC(C1)N2c1nc(-c2cccc(NS(=O)(=O)c3c(F)cccc3F)c2F)c(-c2ccnc(NC3CC4(C3)CS(=O)(=O)C4)n2)s1 [Example 135, N-(3-(5-(2-((2,2-dioxido-2-thiaspiro[3.3]heptan-6-yl)amino)-pyrimidin-4-yl)-2-(3-methyl-3,8-diazabicyclo[3.2.1]octan-8-yl)thiazol-4-yl)-2-fluorophenyl)-2,6-difluorobenzenesulfonamide]
6 | 0.1 | [2H]C([2H])([2H])N1CC2CCC(C1)N2c1nc(-c2cccc(NS(=O)(=O)c3c(F)cccc3F)c2F)c(-c2ccnc(NC3CC4(C3)CS(=O)(=O)C4)n2)s1 [Example 137, N-(3-(5-(2-((2,2-dioxido-2-thiaspiro[3.3]heptan-6-yl)amino)-pyrimidin-4-yl)-2-(3-(methyl-d3)-3,8-diazabicyclo[3.2.1]octan-8-yl)thiazol-4-yl)-2-fluorophenyl)-2,6-difluorobenzenesulfonamide]
7 | 0.13 | O=S1(=O)CC2(CC(Nc3nccc(-c4sc(N5C6CCC5CN(CC(F)(F)F)C6)nc4-c4cccc(NS(=O)(=O)c5c(F)cccc5F)c4F)n3)C2)C1 [Example 139, N-(3-(5-(2-((2,2-dioxido-2-thiaspiro[3.3]heptan-6-yl)amino)-pyrimidin-4-yl)-2-(3-(2,2,2-trifluoroethyl)-3,8-diazabicyclo-[3.2.1]octan-8-yl)thiazol-4-yl)-2-fluorophenyl)-2,6-difluoro-benzenesulfonamide]
8 | 6.7 | O=S1(=O)CC2(CC(Nc3nccc(-c4sc(N5C6CCC5CNC6)nc4-c4cccc(NS(=O)(=O)c5c(F)cccc5F)c4F)n3)C2)C1 [Example 141, N-(3-(2-(3,8-diazabicyclo[3.2.1]octan-8-yl)-5-(2-((2,2-dioxido-2-thiaspiro[3.3]heptan-6-yl)amino)pyrimidin-4-yl)thiazol-4-yl)-2-fluorophenyl)-2,6-difluorobenzenesulfonamide]
